In patent publication US5190961A, “Thiourea derivatives and antimicrobial agent and antulcer agent containing the same” (Terumo Kabushiki Kaisha, priority 1990, dated 1993) one finds inhibition in vivo and MIC data, which are given here for 7 molecules.

In test [1] the test system is peptic ulcer induced by water immersion restraint stress. Put plainly: Inhibitory action against the peptic ulcer induced by water immersion restraint stress. The format is in vivo. Particulars: Rattus norvegicus; SD male rats, 32 mg/kg oral, water immersion restraint stress 23° C., 7 hours; read-out: Inhibitory action against stress peptic ulcer, Percent inhibition of p.u. formation. Here is the method: (1) Inhibitory action against the peptic ulcer induced by water immersion restraint stress
SD male rats (weighing 200-300 g) were fasted for 24 hours before oral administration of a thiourea derivative of the invention at a dose of 32 mg/kg bodyweight. One hour later, the animal was put in a stress cage and loaded with water immersion restraint stress in a water bath at 23° C. Seven hours after loading with the stress, the rate was sacrificed with ether, and the stomach was excised and treated with formalin. Area (mm^2 ) of the lesions developed in the glandular stomach area was then measured. Results were expressed in sum of the lesions per animal which was referred to as peptic ulcer index.
(§1) It was confirmed that the thiourea derivatives of the invention not shown in the table also have a similar antiulcer activity.
Percent inhibition of the peptic ulcer formation (%) as shown in the table was calculated according to the following equation: [formula]

The subject of another test is ethanol peptic ulcer. Briefly: Inhibitory action against ethanol peptic ulcer. Particulars: Rattus norvegicus; SD male rats, 32 mg/kg oral, 1 hour before ethanol 0.5 ml/100 g; read-out: Inhibitory action against ethanol peptic ulcer, Percent inhibition of p.u. formation. It counts as in vivo. How it is done: (2) Inhibitory action against ethanol peptic ulcer
SD male rats (weighing 200-300 g) were fasted for 24 hours before oral administration of a thiourea derivative of the invention at a dose of 32 mg/kg bodyweight. One hour later, ethanol was orally given in a volume of 0.5 ml/100 g bodyweight. One hour after treating with ethanol, the rat was sacrificed with ether, and the stomach was excised and treated with formalin. Area (mm^2) of the lesions developed in the glandular stomach area was then measured. Results were expressed in sum of the lesions per animal which was referred to as peptic ulcer index.
as §1
Percent inhibition of the peptic ulcer formation (%) as shown in the table was calculated according to the same equation as mentioned above.

The subject of another test is Helicobacter pylori. Put plainly: Antimicrobial activity against Helicobacter pylori (MIC). Particulars: NCTC11916, strain NCTC 11916, twofold dilution, 37° C., 3-5 days, O2 about 5%. The format is cell-based, Helicobacter pylori strain NCTC 11916. How it is done: (3) Antimicrobial activity against Helicobacter pylori
Antimicrobial activity of the thiourea derivatives according to the invention against Helicobacter pylori (or Campylobacter pylori) was evaluated by employing strain NCTC 11916 as a Helicobacter test organism and determining MIC (minimum inhibitory concentration) for the strain with the thiourea derivative.
The Helicobacter pylori was pre-incubated in a plate medium for 3-5 days. The medium was prepared by dissolving 38 g of a Mueller-Hinton medium (manufactured by Difco) in an appropriate amount of distilled water, sterilizing the solution in an autoclave, adding to the solution 50 ml of a horse hemolysis solution (manufactured by Nippon Seibutu Zairyou Center: Horse defibrinized blood, hemolyzed by a lyophilization treatment) and 2 ml of Skirrow, a Campylobacter selective supplement (manufactured by OXOID) containing vancomycin (5 mg), trimethoprim (2.5 mg) and polymyxin B (1250 IU) per vial (2 ml), and further an appropriate amount of distilled water to a volume of 1L in total and expanding and solidifying the solution on a dish. These antibiotics were contained for inhibition of the growth of microorganism other than Helicobacter pylori. The Helicobacter pylori pre-incubated under slightly aerobic conditions (an O2 concentration of about 5%) at 37° C. for 3-5 days was suspended in a physiological saline solution in a concentration of approximately 10^8 organisms/ml. Approximately 10-20 μl of the suspension was inoculated on a medium for MIC measurement in cross streaks. […] The DMSO solution was formed by the twofold dilution method. As in the pre-incubation, the Helicobacter pylori was cultured under slightly aerobic conditions at 37° C. for 3-5 days. After completion of the culture, growth of the microoranisms on the streaks was visually determined. The minimum concentration of the thiourea derivative in which no growth was observed was taken as MIC.
It was confirmed that the thiourea derivatives of the invention not shown in the table also have a similar antimicrobial activity.

Converted amounts (≈) assume the structure as drawn.

In general, MIC refers to the smallest concentration in the dilution series that meets the test's criterion for growth inhibition. Regarding `O=C(CCCNC(=S)Nc1ccccc1C(F)(F)F)NCCCOc1cccc(CN2CCCCC2)c1` [Example 22, 1-[3-[N-[3-[3-(piperidinomethyl)phenoxy]propyl]carbamoyl]propyl]-3-(2-trifluoromethylphenyl)thiourea], the inhibition in vivo at 32 mg/kg stood at 83.3% in test [1] and 76.4% in the test with ethanol peptic ulcer. Besides, inhibition of growth against Helicobacter pylori (MIC) required 6.25 µg/mL (≈ 11.6 µM).

Turning to `O=C(CCCNC(=S)Nc1ccccc1[N+](=O)[O-])NCCCOc1cccc(CN2CCCCC2)c1` [Example 23, 1-[3-[N-[3-[3-(piperidinomethyl)phenoxy]propyl]carbamoyl]propyl]-3-(O-nitrophenyl)thiourea], the results for the inhibition in vivo at 32 mg/kg (in test [1]; in the test with ethanol peptic ulcer) were 76.4% and 72.3%, respectively. In the test with Helicobacter pylori, the minimal inhibitory concentration (MIC) amounted to 6.25 µg/mL (≈ 12.2 µM).

Turning to `COCOc1ccccc1NC(=S)NCCCC(=O)NCCCOc1cccc(CN2CCCCC2)c1` [Example 24, 1-[3-[N-[3-[3-(piperidinomethyl)phenoxy]propyl]carbamoyl]propyl]-3-(2-methoxymethoxyphenyl)thiourea], the inhibition in vivo at 32 mg/kg in test [1] stood at 60.3%; in the test on ethanol peptic ulcer, 70.3%. The same molecule showed an MIC against Helicobacter pylori of 12.5 µg/mL (≈ 23.6 µM).

Regarding `COc1ccc(NC(=S)NCCCC(=O)NCCCOc2cccc(CN3CCCCC3)c2)cn1` [Example 25, 1-[3-[N-[3-[3-(piperidinomethyl)phenoxy]propyl]carbamoyl]propyl]-3-[3-(6-methoxypyridyl)]thiourea], the values for the inhibition in vivo at 32 mg/kg (in test [1]; with ethanol peptic ulcer) were 65.6% and 72.5%, respectively. This molecule had an MIC with Helicobacter pylori of 6.25 µg/mL (≈ 12.5 µM).

For the molecule `O=C(CCCNC(=S)NCc1ccco1)NCCCOc1cccc(CN2CCCCC2)c1` [Example 26, 1-[3-[N-[3-[3-(piperidinomethyl)phenoxy]propyl]carbamoyl]propyl]-3-furfurylthiourea], the inhibition in vivo at 32 mg/kg in test [1] was found to be 74.4%; in the test on ethanol peptic ulcer, 90.3%. In the test on Helicobacter pylori, this molecule yielded an MIC of 6.25 µg/mL (≈ 13.2 µM).

Turning to `O=C(CCCNC(=S)NCc1cccs1)NCCCOc1cccc(CN2CCCCC2)c1` [Example 27, 1-[3-[N-[3-[3-(piperidinomethyl)phenoxy]propyl]carbamoyl]propyl]-3-(2-thienylmethyl)thiourea], the inhibition in vivo at 32 mg/kg in test [1] was determined as 72.5%; with ethanol peptic ulcer, 88.2%. This molecule also returned an MIC with Helicobacter pylori of 6.25 µg/mL (≈ 12.8 µM).

For `O=C(CCCCCNC(=S)Nc1ccccc1)NCCCOc1cccc(CN2CCCCC2)c1` [Example 28, 1-[5-[N-[3-[3-(piperidinomethyl)phenoxy]propyl]carbamoyl]pentyl]-3-phenylthiourea], the results for the inhibition in vivo at 32 mg/kg (in test [1]; in the test on ethanol peptic ulcer) were 73.2% and 75.5%, respectively. The same molecule yielded an MIC against Helicobacter pylori of 12.5 µg/mL (≈ 25.2 µM).
